Measured values from PMC3610893, “The CouPSTU and TarPQM Transporters in Rhodopseudomonas palustris: Redundant, Promiscuous Uptake Systems for Lignin-Derived Aromatic Substrates” (PLoS ONE, 2013).
“And” between values parts separate entries of the source, which are not always exact repeats. Equal values may be shown once.

What was measured:
[1] = molecular target: T1, TarP (RPA1782) periplasmic binding-protein (Rhodopseudomonas palustris, UniProt Q6N8X0); test: Intrinsic tryptophan fluorescence spectroscopy / ligand titrations with TarP (RPA1782); settings: for Quench of intrinsic tryptophan fluorescence of TarP (RPA1782): equimolar protein and ligand (0.2 µM), excitation 280 nm
T1 sequence (Q6N8X0 20-336): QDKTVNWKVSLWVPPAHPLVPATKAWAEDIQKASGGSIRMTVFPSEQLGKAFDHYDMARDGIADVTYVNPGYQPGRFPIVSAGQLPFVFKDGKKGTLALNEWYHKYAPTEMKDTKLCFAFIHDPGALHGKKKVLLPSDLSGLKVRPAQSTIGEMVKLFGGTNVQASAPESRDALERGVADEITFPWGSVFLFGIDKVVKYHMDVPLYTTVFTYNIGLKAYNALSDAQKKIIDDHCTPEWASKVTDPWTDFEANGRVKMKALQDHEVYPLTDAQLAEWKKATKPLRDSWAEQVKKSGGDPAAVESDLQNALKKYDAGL
Method: (§1) Pure protein was unfolded by dialysis against 1 L of 6 M urea for 16 hours at 4°C. Refolding was effected by dialysis against 2 L of refolding buffer (50 mM Tris-HCl pH 7.2 plus 100 mM NaCl) for 8 hours, the buffer being changed every 2 hours with a final overnight dialysis. Once removed from the dialysis tubing, protein was centrifuged (13,000×g, 10 mins, 4°C) to remove any precipitated misfolded protein.
(§2) Changes in the UV fluorescence of intrinsic tryptophan residues in RPA1782 and RPA1789 were measured using a Cary Eclipse fluorimeter (Varian Ltd, UK) in 10 mM Tris-HCl buffer pH 7.4 at 30°C in a 3 ml volume. Excitation of samples was at 280 nm (5 nm slit width) and emission was recorded at 300–400 nm (20 nm slit width). Ligand titrations were performed with 0.2 µM protein with λex 280 nm λem 340 nm using 5 nm excitation and 20 nm emission slit widths respectively. Except where indicated, data from three independent titrations was used to calculate K d values, by fitting to the quadratic equation for tight binding as previously described.

[2] = molecular target: T2, CouP (RPA1789) periplasmic binding-protein (Rhodopseudomonas palustris, UniProt Q6N8W4); test: Intrinsic tryptophan fluorescence spectroscopy / ligand titrations with CouP (RPA1789); settings: for Quench of intrinsic tryptophan fluorescence of CouP (RPA1789): 0.2 µM ligand added to 0.2 µM protein (equimolar), excitation 280 nm; for K d with CouP that was not urea treated, relative to refolded protein: fluorescence titrations, CouP not urea treated (endogenous ligand not removed), fold higher
T2 sequence (Q6N8W4 27-385): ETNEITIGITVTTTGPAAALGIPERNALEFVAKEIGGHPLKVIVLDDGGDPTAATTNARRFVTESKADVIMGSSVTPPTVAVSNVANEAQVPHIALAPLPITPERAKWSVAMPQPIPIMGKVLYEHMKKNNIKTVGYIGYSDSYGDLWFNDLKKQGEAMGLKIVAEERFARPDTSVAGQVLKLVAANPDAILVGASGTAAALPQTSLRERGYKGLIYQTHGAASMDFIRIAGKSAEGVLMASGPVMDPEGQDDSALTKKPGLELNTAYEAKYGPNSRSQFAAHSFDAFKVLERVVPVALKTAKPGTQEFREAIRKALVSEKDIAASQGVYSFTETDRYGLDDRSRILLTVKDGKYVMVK
Method: as §1, §2

CouP (RPA1789) = molecular target: T3, CouP (RPA1789) (Rhodopseudomonas palustris, UniProt Q6N8W4); test: Isothermal titration calorimetry (ITC) with RPA1789; type: binding
T3 sequence (Q6N8W4 27-385): T2 sequence (Q6N8W4 27-385)
Method: ITC experiments were carried out using a VP-ITC calorimeter (Microcal, Inc., UK). Ligand stock solutions for ITC experiments were made up in aliquots of the final refolding buffer that RPA1789 was dialysed against (50 mM Tris-HCl pH 7.2 plus 100 mM NaCl) and all reactions used the same buffer. The reaction cell contained 1.8 ml of 50 µM protein in refolding buffer. Ligand titrations were carried out at 20°C (except caffeate which was carried out at 25°C) by the injection of 20×15 µl aliquots of 400 µM ligand, from a 300 µl syringe, for a duration of 35 seconds at 7 minute intervals. After taking into account the baseline and any heats of dilution by the ligand, all titrations were integrated using the ORIGIN software programme associated with the calorimeter then exported to in-house numerical routines for data fitting to the Weissman isotherm.

[3] = molecular target: T2, CouP (RPA1789) periplasmic binding-protein; test: Intrinsic tryptophan fluorescence spectroscopy / ligand titrations with CouP (RPA1789); settings: CouP not urea treated (endogenous ligand not removed)
RPA1789 = molecular target: RPA1789; design: method as in PMID 22577139; settings: read-out: K d for RPA1789 by ITC (literature); cited from earlier work
[4] = ITC, 20°C, 50 µM protein, 50 mM Tris-HCl pH 7.2 plus 100 mM NaCl

Kd (CouP (RPA1789)) | n (ligand binding stoichiometry) (CouP (RPA1789); ITC, 25°C) | ΔH (binding enthalpy) (CouP (RPA1789); ITC, 25°C) | ΔHdil (heats of dilution of the ligands) (CouP (RPA1789); ITC, 25°C) | ΔS (binding entropy) (CouP (RPA1789); ITC, 25°C) | Structure (SMILES) | Binding to TarP (RPA1782), fluorescence screen ([1]; equimolar protein and ligand) | Quench of intrinsic tryptophan fluorescence of CouP (RPA1789) [2] | Binding to CouP (RPA1789) ([2]; fluorescence) | Kd [1] | Quench of intrinsic tryptophan fluorescence of TarP (RPA1782) [1] | ΔH (binding enthalpy) (CouP (RPA1789); [4]) | Kd [2] | K d with CouP that was not urea treated, relative to refolded protein [2] | n (ligand binding stoichiometry) (CouP (RPA1789); ITC, 20°C) | ΔHdil (heats of dilution of the ligands) (CouP (RPA1789); ITC, 20°C) | ΔS (binding entropy) (CouP (RPA1789); ITC, 20°C) | ΔHbind (less favourable enthalpy of binding) (CouP (RPA1789); ITC, CouP, compared with ligands bearing the 4-OH group) | Binding to CouP that was not urea treated [3] | Kd (RPA1789)
– | – | – | – | – | O=C(O)c1ccc(O)cc1 [4-hydroxybenzoate] | no evidence of binding | did not produce any fluorescence change | no evidence of binding | – | – | – | – | – | – | – | – | – | – | –
27 ± 0.07 nM | 0.776±0.005 | 1.78 ± 0.05 kcal/mol | -0.28 kcal/mol | 40 cal mol^−1 K^−1 | O=C(O)/C=C/c1ccc(O)c(O)c1 [Caffeate, (E)-3-(3,4-dihydroxyphenyl)-2-propenoic acid] | – | 25–50% | – | 14 ± 7 nM | ~5% | negligible enthalpy of binding | 2.4 ± 0.8 nM | 200-1,000 fold | – | – | – | – | – | –
– | – | – | – | – | O=C(O)/C=C/c1ccccc1 [Cinnamate, (E)-3-phenyl-2-propenoic acid] | – | 25–50% | – | 50 nM and 33 nM | ~5% | 7.45 ± 0.08 kcal/mol | 88 ± 8 nM | – | 0.757±0.003 | -0.43 kcal/mol | 56 cal mol^−1 K^−1 | > 4 kcal/mol | no evidence for cinnamate binding | –
– | – | – | – | – | O=C(O)/C=C/c1ccc(O)cc1 [Coumarate, (E)-3-(4-hydroxyphenyl)-2-propenoic acid] | – | ~30% and 25–50% | – | 8 ± 5 nM | ~5% | 3.23 ± 0.03 kcal/mol | 2.6 ± 0.09 nM | 200-1,000 fold | 0.993±0.003 | -0.26 kcal/mol | 46 cal mol^−1 K^−1 | – | – | 8600 nM
– | – | – | – | – | COc1cc(/C=C/C(=O)O)ccc1O [Ferulate, (E)-3-(4-hydroxy-3-methoxyphenyl)-2-propenoic acid] | – | 25–50% | – | 15 ± 3 nM | ~5% | 3.18 ± 0.03 kcal/mol | 15 ± 6 nM | 200-1,000 fold | 0.803±0.002 | -0.24 kcal/mol | 43 cal mol^−1 K^−1 | – | – | –
– | – | – | – | – | COc1cc(C=CC(=O)O)cc(OC)c1O [sinapate, 3-(4-hydroxy-3,5-dimethoxyphenyl)-2-propenoic acid] | – | ~5% | – | – | – | – | – | – | – | – | – | – | – | –
